Source: patent US8658794B2, “8-methyl-1-phenyl-imidazol[1,5-a]pyrazine compounds as Lck inhibitors and uses thereof” (Merck Sharp & Dohme B.V., priority 2010, dated 2014)

What follows are compounds tested against T1, N-terminal His6-tagged recombinant full-length human Lck (Homo sapiens, UniProt P06239) (assay: Lck IMAP assay). Conditions: ATP 6 μM (KM,ATP), enzyme pre-incubated with compounds for 60 minutes, values given as bins.
T1 construct: N-terminal His6-tagged recombinant full-length human Lck; His6 (N); purchased Millipore
Assay type: biochemical
How it was run: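 Full-length His6-Lck at 0.1 U/ml was preincubated 60 min with compound, then run 120 min at room temperature with 100 nM fluorescein-p34cdc2 peptide and 6 μM ATP (KM) in pH 7.2 Tris buffer. Read-out by IMAP fluorescence polarization; pIC50 from ten-point √10 dilutions starting at 10^-6 M.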

T1 sequence (P06239 whole entry): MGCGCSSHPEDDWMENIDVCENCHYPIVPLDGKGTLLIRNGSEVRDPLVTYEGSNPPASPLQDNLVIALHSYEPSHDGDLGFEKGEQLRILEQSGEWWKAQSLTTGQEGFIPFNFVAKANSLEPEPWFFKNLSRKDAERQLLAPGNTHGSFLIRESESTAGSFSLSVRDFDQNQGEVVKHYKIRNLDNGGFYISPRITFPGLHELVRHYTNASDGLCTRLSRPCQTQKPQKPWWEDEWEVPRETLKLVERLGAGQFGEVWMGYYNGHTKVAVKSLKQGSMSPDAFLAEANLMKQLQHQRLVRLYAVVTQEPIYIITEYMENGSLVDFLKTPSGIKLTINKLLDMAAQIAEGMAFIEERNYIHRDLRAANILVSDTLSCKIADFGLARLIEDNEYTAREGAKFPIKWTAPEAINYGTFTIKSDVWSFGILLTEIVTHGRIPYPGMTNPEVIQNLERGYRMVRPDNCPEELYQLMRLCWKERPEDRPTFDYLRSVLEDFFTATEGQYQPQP

SMILES	IC50
COc1cc(-c2nc([C@H]3CC[C@H](N4CCN(C)CC4)CC3)n3ccnc(C)c23)ccc1NC(=O)c1cc2ccsc2[nH]1 [Example 57, N-(2-Methoxy-4-(8-methyl-3-((trans)-4-(4-methylpiperazin-1-yl)cyclohexyl)imidazo[1,5-a]pyrazin-1-yl)phenyl)-6H-thieno[2,3-b]pyrrole-5-carboxamide]	≤ 10 nM
COc1cc(-c2nc(N3CCOCC3)n3ccnc(C)c23)ccc1NC(=O)c1cc2ccccc2n1C [Example 24, N-(2-methoxy-4-(8-methyl-3-(morholin-4-yl)imidazo[1,5-a]pyrazin-1-yl)phenyl)-1-methyl-1H-indole-2-carboxamide]	≤ 10 nM
COc1cc(-c2nc([C@H]3CC[C@H](CN(C)C)CC3)n3ccnc(C)c23)ccc1NC(=O)c1cc2c(OC)cccc2n1C [Example 64, N-(4-(3-((trans)-4-((dimethylamino)methyl)cyclohexyl)-8-methylimidazo[1,5-a]pyrazin-1-yl)-2-methoxyphenyl)-4-methoxy-1-methyl-1H-indole-2-carboxamide]	≤ 10 nM
CC[C@H](C)OC(=O)Nc1ccc(-c2nc([C@H]3CC[C@H](N4CCN(C)CC4)CC3)n3ccnc(C)c23)cc1OC [Example 48, (S)-sec-Butyl 2-methoxy-4-(8-methyl-3-((trans)-4-(4-methylpiperazin-1-yl)cyclohexyl)imidazo[1,5-a]pyrazin-1-yl)phenylcarbamate]	≤ 10 nM
COc1cc(-c2nc(C3CCOCC3)n3ccnc(C)c23)c(F)cc1NC(=O)OC(C)CCCO (stereo not drawn) [Example 47, 5-Hydroxypentan-2-yl 5-fluoro-2-methoxy-4-(8-methyl-3-(tetrahydro-2h-pyran-4-yl)imidazo[1,5-a]pyrazin-1-yl)phenylcarbamate]	100 to 1000 nM
CCC[C@H](C)OC(=O)Nc1ccc(-c2nc([C@H]3CC[C@H](NCCOC)CC3)n3ccnc(C)c23)cc1OC [Example 11, (S)-Pentan-2-yl 2-methoxy-4-(3-((trans)-4-(2-methoxyethylamino)cyclohexyl)-8-methyl-imidazo[1,5-a]pyrazin-1-yl)phenylcarbamate]	≤ 10 nM
COc1cc(-c2nc([C@@H]3CCN(C(=O)CO)C3)n3ccnc(C)c23)ccc1NC(=O)c1cc2c(OC)cccc2n1C [Example 53, (R)—N-(4-(3-(1-(2-hydroxyacetyl)pyrrolidin-3-yl)-8-methylimidazo[1,5-a]pyrazin-1-yl)-2-methoxyphenyl)-4-methoxy-1-methyl-1H-indole-2-carboxamide]	≤ 10 nM
COc1cc(-c2nc([C@H]3CC[C@H](NCC(F)F)CC3)n3ccnc(C)c23)ccc1NC(=O)c1cc2c(OC)cccc2n1C [Example 40, N-(4-(3-((trans)-4-(2,2-Difluoroethylamino)cyclohexyl)-8-methylimidazo[1,5-a]pyrazin-1-yl)-2-methoxyphenyl)-4-methoxy-1-methyl-1H-indole-2-carboxamide]	≤ 10 nM
COc1cc(-c2nc([C@H]3CC[C@H](CNC(C)=O)CC3)n3ccnc(C)c23)ccc1NC(=O)c1cc2c(OC)cccc2n1C [Example 68, N-(4-(3-((trans)-4-(acetamidomethyl)cyclohexyl)-8-methylimidazo[1,5-a]pyrazin-1-yl)-2-methoxyphenyl)-4-methoxy-1-methyl-1H-indole-2-carboxamide]	≤ 10 nM
COc1cc(-c2nc([C@H]3CC[C@H](N4CCN(C)CC4)CC3)n3ccnc(C)c23)ccc1NC(=O)c1cc2c(O)cccc2n1C [Example 59, 4-Hydroxy-N-(2-methoxy-4-(8-methyl-3-((trans)-4-(4-methylpiperazin-1-yl)cyclohexyl)imidazo[1,5-a]pyrazin-1-yl)phenyl)-1-methyl-1H-indole-2-carboxamide]	≤ 10 nM
COc1cc(-c2nc(C3CCC(=O)CC3)n3ccnc(C)c23)ccc1NC(=O)c1cc2c(OC)cccc2n1C [Example 71, 4-Methoxy-N-(2-methoxy-4-(8-methyl-3-(4-oxocyclohexyl)imidazo[1,5-a]pyrazin-1-yl)phenyl)-1-methyl-1H-indole-2-carboxamide]	≤ 10 nM
COc1cc(-c2nc(C3CCN(C)CC3)n3ccnc(C)c23)ccc1NC(=O)c1cc2c(F)cccc2n1C [Example 45, 4-fluoro-N-(2-methoxy-4-(8-methyl-3-(1-methylpiperidin-4-yl)imidazo[1,5-a]pyrazin-1-yl)phenyl)-1-methyl-1H-indole-2-carboxamide]	10 to 100 nM
CCC[C@H](C)OC(=O)Nc1ccc(-c2nc([C@H]3CC[C@H](N(C)CCOC)CC3)n3ccnc(C)c23)cc1OC [Example 26a, (S)-pentan-2-yl 2-methoxy-4-(3-((trans)-4-((2-methoxyethyl)(methyl)amino)cyclohexyl)-8-methylimidazo[1,5-a]pyrazin-1-yl)phenylcarbamate]	≤ 10 nM
COc1cc(-c2nc(C3CCN(C)CC3)n3ccnc(C)c23)ccc1NC(=O)c1cc2ccccc2n1C [Example 43, N-(2-methoxy-4-(8-methyl-3-(1-methylpiperidin-4-yl)imidazo[1,5-a]pyrazin-1-yl)phenyl)-1-methyl-1H-indole-2-carboxamide]	≤ 10 nM

Other lines, results leading:

IC50	SMILES
10 to 100 nM	CCC[C@H](C)OC(=O)Nc1ccc(-c2nc(N3CCC3)n3ccnc(C)c23)cc1OC [Example 3, (S)-pentan-2-yl 4-(3-(azetidin-1-yl)-8-methylimidazo[1,5-a]pyrazin-1-yl)-2-methoxyphenylcarbamate]
≤ 10 nM	CCC[C@H](C)OC(=O)Nc1ccc(-c2nc([C@H]3C[C@H](N4CCN(C)CC4)C3)n3ccnc(C)c23)cc1OC [Example 27, (S)-Pentan-2-yl 2-methoxy-4-(8-methyl-3-((1r,3r)-3-(4-methylpiperazin-1-yl)cyclobutyl)imidazo[1,5-a]pyrazin-1-yl)phenylcarbamate]
≤ 10 nM	CCC[C@H](C)OC(=O)Nc1ccc(-c2nc(N3CCN(C(C)=O)CC3)n3ccnc(C)c23)cc1OC [Example 31, (S)-Pentan-2-yl 4-(3-(4-acetylpiperazin-1-yl)-8-methylimidazo[1,5-a]pyrazin-1-yl)-2-methoxyphenylcarbamate]
≤ 10 nM	CCC[C@H](C)OC(=O)Nc1ccc(-c2nc([C@@H]3CCN(C(=O)CN(C)C)C3)n3ccnc(C)c23)cc1OC [Example 4, (S)-pentan-2-yl 4-(3-((R)-1-(2-(dimethylamino)acetyl)pyrrolidin-3-yl)-8-methylimidazo[1,5-a]pyrazin-1-yl)-2-methoxyphenylcarbamate]
≤ 10 nM	CCC[C@H](C)OC(=O)Nc1ccc(-c2nc([C@H]3CC[C@H](N4CCN(C(C)=O)CC4)CC3)n3ccnc(C)c23)cc1OC [Example 33d, (S)-pentan-2-yl 4-(3-((trans)-4-(4-acetylpiperazin-1-yl)cyclohexyl)-8-methylimidazo[1,5-a]pyrazin-1-yl)-2-methoxyphenylcarbamate]
≤ 10 nM	COc1cc(-c2nc([C@H]3CC[C@@H](N4CCOCC4)CC3)n3ccnc(C)c23)ccc1NC(=O)c1cc2c(OC)cccc2n1C [Example 26d, 4-methoxy-N-(2-methoxy-4-(8-methyl-3-((cis)-4-morpholinocyclohexyl)imidazo[1,5-a]pyrazin-1-yl)phenyl)-1-methyl-1H-indole-2-carboxamide]
≤ 10 nM	COc1cc(-c2nc([C@H]3CC[C@@H](N(C)C)CC3)n3ccnc(C)c23)ccc1NC(=O)c1cc2c(OC)cccc2n1C [Example 26e, N-(4-(3-((cis)-4-(dimethylamino)cyclohexyl)-8-methylimidazo[1,5-a]pyrazin-1-yl)-2-methoxyphenyl)-4-methoxy-1-methyl-1H-indole-2-carboxamide]
100 to 1000 nM	COc1cc(-c2nc(Cn3ccnc3)n3ccnc(C)c23)ccc1NC(=O)c1cc2c(OC)cccc2n1C [Example 15, N-(4-(3-((1H-imidazol-1-yl)methyl)-8-methylimidazo[1,5-a]pyrazin-1-yl)-2-methoxyphenyl)-4-methoxy-1-methyl-1H-indole-2-carboxamide]
≤ 10 nM	COc1cc(-c2nc(C3CCOCC3)n3ccnc(C)c23)ccc1NC(=O)c1cc2ccccc2n1C [Example 1, N-[2-Methoxy-4-[8-methyl-3-(tetrahydro-2H-pyran-4-yl)imidazo[1,5-a]pyrazine]phenyl]-1-methyl-1H-indole-2-carboxamide]
10 to 100 nM	COc1cc(-c2nc([C@H]3CCN(C4CCOCC4)C3)n3ccnc(C)c23)ccc1NC(=O)c1cc2c(OC)cccc2n1C [Example 36, (S)-4-Methoxy-N-(2-methoxy-4-(8-methyl-3-(1-(tetrahydro-2H-pyran-4-yl)pyrrolidin-3-yl)imidazo[1,5-a]pyrazin-1-yl)phenyl)-1-methyl-1H-indole-2-carboxamide]
10 to 100 nM	COc1cc(-c2nc([C@@H]3CCN(CC(=O)N(C)C)C3)n3ccnc(C)c23)ccc1NC(=O)c1cc2c(OC)cccc2n1C [Example 52, (R)—N-(4-(3-(1-(2-(dimethylamino)-2-oxoethyl)pyrrolidin-3-yl)-8-methylimidazo[1,5-a]pyrazin-1-yl)-2-methoxyphenyl)-4-methoxy-1-methyl-1H-indole-2-carboxamide]
≤ 10 nM	COc1cc(-c2nc([C@H]3CC[C@H](N4CCN(C(C)=O)CC4)CC3)n3ccnc(C)c23)ccc1NC(=O)c1cc2ccccc2n1C [Example 33c, N-(4-(3-((trans)-4-(4-acetylpiperazin-1-yl)cyclohexyl)-8-methylimidazo[1,5-a]pyrazin-1-yl)-2-methoxyphenyl)-1-methyl-1H-indole-2-carboxamide]
≤ 10 nM	COc1cc(-c2nc(N3CCN(C4CCN(C(C)=O)CC4)CC3)n3ccnc(C)c23)ccc1NC(=O)c1cc2c(OC)cccc2n1C [Example 32, N-(4-(3-(4-(1-Acetylpiperidin-4-yl)piperazin-1-yl)-8-methylimidazo[1,5-a]pyrazin-1-yl)-2-methoxyphenyl)-4-methoxy-1-methyl-1H-indole-2-carboxamide]
